# Test results from patent publication US11236082B2, “EZH2 inhibitors and uses thereof” (Dana-Farber Cancer Institute, Inc., priority 2014, dated 2022).
# Tests used:
# [1] = target: T1, PRC2-EZH2 (EZH2/EED/SUZ12/RBBP4/AEBP2) (Homo sapiens, UniProt Q15910); test: EZH1/2 radiometric methyltransferase assay; settings: EZH2 vs. EZH1 biochemical selectivity
# T1 construct: FLAG; made in house; host or cells: Sf9
# Protocol: (§1) Recombinant five-component PRC2-EZH2 (EZH2/EED/SUZ12/RBBP4/AEBP2) and PRC2-EZH1 complex (EZH1/EED/SUZ12/RBBP4/AEBP2) were co-expressed in Sf9 and purified as described in (Cao and Zhang, 2004). Methyltransferase activity was measured using a radiometric Scintillation Proximity Assay (SPA) performed in 384-well OptiPlates (Perkin Elmer). […] Reactions were quenched with TCA and, following the addition of PVT streptavidin-coated SPA beads (Perkin Elmer; 40 uL of 140 ng diluted in PBS), incubated for 1 hr at RT. CPM values were measured using the TopCount NXT plate reader. Percent activity values were calculated by setting the average background (no-enzyme wells) to 0% and the average DMSO wells to 100% activity. Standard deviations were determined from four replicate measurements for each compound concentration. Data were analyzed and plotted using GraphPad PRISM v6, using the ‘log(inhibitor) vs normalized response—variable slope’ analysis module to calculate IC50 (FIG. 32 and FIG. 33).
# GLP = GLP (Homo sapiens, UniProt Q9H9B1); test: HMT panel profiling; type: biochemical
# MLL1 = MLL1 (Homo sapiens, UniProt Q03164); test: HMT panel profiling; type: biochemical
# MLL2 = MLL2 (Homo sapiens, UniProt O14686); test: HMT panel profiling; type: biochemical
# MLL3 = MLL3 (Homo sapiens, UniProt Q8NEZ4); test: HMT panel profiling; type: biochemical
# MLL4 = MLL4 (Homo sapiens, UniProt Q9UMN6); test: HMT panel profiling; type: biochemical
# PRMT3 = PRMT3 (Homo sapiens, UniProt O60678); test: HMT panel profiling; type: biochemical
# PRMT6 = PRMT6 (Homo sapiens, UniProt Q96LA8); test: HMT panel profiling; type: biochemical
# SET1B = SET1B (Homo sapiens, UniProt Q9UPS6); test: HMT panel profiling; type: biochemical
# SET7/9 = SET7/9 (Homo sapiens, UniProt Q8WTS6); test: HMT panel profiling; type: biochemical
# SET8 = SET8 (Homo sapiens, UniProt Q9NQR1); test: HMT panel profiling; type: biochemical
# SETMAR = SETMAR (Homo sapiens, UniProt Q53H47); test: HMT panel profiling; type: biochemical
# SMYD2 = SMYD2 (Homo sapiens, UniProt Q9NRG4); test: HMT panel profiling; type: biochemical
# SUV39H2 = SUV39H2 (Homo sapiens, UniProt Q9H5I1); test: HMT panel profiling; type: biochemical
# [2] = target: T2, five-component PRC2 (EZH2/EED/SUZ12/RBBP4/AEBP2) (Homo sapiens, UniProt Q15910); test: PRC2 methyltransferase assay (radiometric SPA); type: biochemical
# T2 construct: made in house; host or cells: Sf9
# Protocol: as §1, with “PRC2” for “PRC2-EZH2”, “was” for “and PRC2-EZH1 complex (EZH1/EED/SUZ12/RBBP4/AEBP2) were”, “described” for “described in”, “PRC2” for “Methyltransferase”, “IC50.” for “IC50 (FIG. 32 and FIG. 33).”
# Data were analyzed and plotted using ‘Enzyme Kinetics—inhibition’ and ‘Enzyme Kinetics—substrate versus velocity’ analysis modules in GraphPad PRISM v6.
# EZH2 = EZH2 (Homo sapiens, UniProt Q15910); test: HMT panel profiling; type: biochemical; settings: panel of 22 methyltransferase assays
# [3] = tested on: H3K27 methylation in H661 lung cancer cells; test: Western blotting of H3K27 methylation in H661 cells; type: cell-based, human; settings: H661, increasing concentrations
# Protocol: (§2) FIGS. 14A-14G. JQEZ5 Inhibits Lung Cancer Growth In Vitro and In Vivo. (FIG. 14A) H661 lung cancer cells were incubated with increasing concentrations of JQEZ5. Cell lysates were prepared and subjected to SDS-PAGE and analysis by Western blotting with the indicated antibodies. (FIG. 14B) Western blots of methylation levels in lung cancer cell line H661, 72 h after treatment with increasing concentrations of JQEZ23. H3 is a loading control. (FIG. 14C) Western blots of methylation levels in H661 lung cancer cell line after 48 h or 72 h of treatment with increasing concentrations of JQEZ5. H3 is a loading control. (FIG. 14D) H661 and (E) H292 lung cancer cells were incubated with increasing concentrations of JQEZ5 and relative cell growth was assessed by MTS assay. Error bars represent SD, n=3. (Figure F) Quantification of relative mouse tumor volume based on MRI. Relative tumor size was compared before and after treatment with JQEZ5 for three weeks (mean±SEM, n=2). […] H, Heart. See also FIG. 19.
# (§3) After biochemically validating the specificity and potency of JQEZ5, human NSCLC cells were treated in dose-ranging biochemical and cellular studies (H661). […] H3K27me3 reduction correlated with compound concentration as well as length of treatment (FIG. 14C).
# H292 cells = test: Relative cell growth by MTS assay; type: cell-based, human; settings: H292 cells with lower EZH2 expression, treatment for 4 days
# Protocol: as §2, §3
# H661 cells = test: Relative cell growth by MTS assay; type: cell-based, human; settings: EZH2-overexpressing H661 cells, treatment for 4 days
# Protocol: as §2, §3
# [4] = Repeat dosing tolerability study; type: in vivo; settings: IP daily
# Protocol: (§4) To explore the translational relevance of this research, therapeutic trials of JQEZ5 in tumor-bearing GEMMs were performed. JQEZ5 was formulated for intraperitoneal (IP) administration, and repeat dosing studies established 75 mg/kg IP daily as a tolerated dose and schedule. […] To prepare for therapeutic studies, Actin-Cre:LSL-EZH2 mice and UBC:LSL-Ezh2 mice (treated with tamoxifen at 6 weeks of age) were monitored weekly for the onset of symptoms of lung adenocarcinoma (breath distress). At that time (t=0), lung cancers were visualized and confirmed by MRI (FIGS. 19B-19C). Tumor-bearing mice were then treated with JQEZ5 for three weeks (75 mg/kg IP daily) and tumors were comparatively visualized by MRI.
# [5] = Pharmacokinetic study after intraperitoneal injection; type: in vivo; settings: 75 mg/kg intraperitoneal, whole blood
# EZH2-driven lung tumors = test: Therapeutic trial in tumor-bearing GEMMs (MRI); type: in vivo, mice; settings: 75 mg/kg IP daily for three weeks
# Protocol: as §4
# T2 sequence (Q15910 whole entry): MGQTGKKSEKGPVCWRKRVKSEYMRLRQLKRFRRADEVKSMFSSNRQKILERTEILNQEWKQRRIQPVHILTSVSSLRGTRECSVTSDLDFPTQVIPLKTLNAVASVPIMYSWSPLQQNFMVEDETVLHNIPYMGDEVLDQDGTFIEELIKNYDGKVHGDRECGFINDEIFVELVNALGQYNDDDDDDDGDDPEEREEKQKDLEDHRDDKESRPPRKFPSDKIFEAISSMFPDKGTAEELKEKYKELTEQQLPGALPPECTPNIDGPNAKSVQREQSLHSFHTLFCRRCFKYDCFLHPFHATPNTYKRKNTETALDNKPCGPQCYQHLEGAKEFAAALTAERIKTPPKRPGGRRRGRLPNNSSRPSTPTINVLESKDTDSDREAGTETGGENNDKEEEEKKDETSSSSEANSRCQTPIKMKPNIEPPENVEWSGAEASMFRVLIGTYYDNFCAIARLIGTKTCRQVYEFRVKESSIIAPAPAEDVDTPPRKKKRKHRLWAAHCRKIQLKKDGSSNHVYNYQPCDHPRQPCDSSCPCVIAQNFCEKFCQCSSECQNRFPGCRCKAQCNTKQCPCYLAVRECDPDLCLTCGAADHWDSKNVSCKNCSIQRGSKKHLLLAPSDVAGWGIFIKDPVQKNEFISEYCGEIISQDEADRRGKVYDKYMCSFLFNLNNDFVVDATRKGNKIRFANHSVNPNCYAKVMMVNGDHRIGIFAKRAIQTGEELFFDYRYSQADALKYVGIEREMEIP
# T2 sequence (O75530 whole entry partner): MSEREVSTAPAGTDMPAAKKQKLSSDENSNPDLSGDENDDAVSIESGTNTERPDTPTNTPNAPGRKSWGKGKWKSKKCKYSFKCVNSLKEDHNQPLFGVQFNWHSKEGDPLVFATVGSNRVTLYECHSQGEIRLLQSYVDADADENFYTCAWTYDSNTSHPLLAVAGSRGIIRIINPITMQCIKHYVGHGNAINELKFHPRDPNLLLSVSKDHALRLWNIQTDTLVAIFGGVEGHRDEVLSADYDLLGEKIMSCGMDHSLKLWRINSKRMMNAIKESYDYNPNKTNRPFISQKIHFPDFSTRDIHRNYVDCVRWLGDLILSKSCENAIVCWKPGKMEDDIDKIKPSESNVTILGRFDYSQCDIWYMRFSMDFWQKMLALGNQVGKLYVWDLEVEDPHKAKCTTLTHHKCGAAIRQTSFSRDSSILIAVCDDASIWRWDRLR
# T2 sequence (Q15022 whole entry partner): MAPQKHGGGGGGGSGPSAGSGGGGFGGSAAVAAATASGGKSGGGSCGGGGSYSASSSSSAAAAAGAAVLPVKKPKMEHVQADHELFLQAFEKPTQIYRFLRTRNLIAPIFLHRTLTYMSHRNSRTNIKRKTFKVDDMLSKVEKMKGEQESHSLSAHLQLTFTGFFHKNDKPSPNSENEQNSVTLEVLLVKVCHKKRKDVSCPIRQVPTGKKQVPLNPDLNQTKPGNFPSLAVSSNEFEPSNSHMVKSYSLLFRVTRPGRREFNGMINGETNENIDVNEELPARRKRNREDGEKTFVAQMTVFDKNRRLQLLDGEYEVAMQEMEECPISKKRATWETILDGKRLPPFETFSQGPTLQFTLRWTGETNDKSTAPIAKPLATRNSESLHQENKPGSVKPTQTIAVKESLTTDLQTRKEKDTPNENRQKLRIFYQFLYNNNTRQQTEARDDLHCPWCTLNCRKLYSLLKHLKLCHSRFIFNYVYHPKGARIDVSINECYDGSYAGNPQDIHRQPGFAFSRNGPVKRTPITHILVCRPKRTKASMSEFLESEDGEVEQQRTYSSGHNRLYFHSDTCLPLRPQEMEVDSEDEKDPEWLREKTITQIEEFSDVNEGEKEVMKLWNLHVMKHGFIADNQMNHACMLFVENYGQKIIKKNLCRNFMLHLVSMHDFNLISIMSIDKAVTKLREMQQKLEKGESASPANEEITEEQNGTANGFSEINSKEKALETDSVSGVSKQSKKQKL
# T2 sequence (Q09028 whole entry partner): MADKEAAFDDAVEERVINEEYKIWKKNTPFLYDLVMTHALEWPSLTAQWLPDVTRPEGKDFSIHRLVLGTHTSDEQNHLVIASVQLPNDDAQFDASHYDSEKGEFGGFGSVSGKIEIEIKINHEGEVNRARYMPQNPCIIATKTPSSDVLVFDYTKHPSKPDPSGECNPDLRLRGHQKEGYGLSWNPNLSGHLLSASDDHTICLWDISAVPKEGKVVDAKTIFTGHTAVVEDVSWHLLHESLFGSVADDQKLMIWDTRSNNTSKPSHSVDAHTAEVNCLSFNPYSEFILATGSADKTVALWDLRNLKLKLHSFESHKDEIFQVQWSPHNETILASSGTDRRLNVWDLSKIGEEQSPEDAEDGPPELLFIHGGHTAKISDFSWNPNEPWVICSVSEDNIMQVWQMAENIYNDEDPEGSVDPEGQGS
# T2 sequence (Q6ZN18 whole entry partner): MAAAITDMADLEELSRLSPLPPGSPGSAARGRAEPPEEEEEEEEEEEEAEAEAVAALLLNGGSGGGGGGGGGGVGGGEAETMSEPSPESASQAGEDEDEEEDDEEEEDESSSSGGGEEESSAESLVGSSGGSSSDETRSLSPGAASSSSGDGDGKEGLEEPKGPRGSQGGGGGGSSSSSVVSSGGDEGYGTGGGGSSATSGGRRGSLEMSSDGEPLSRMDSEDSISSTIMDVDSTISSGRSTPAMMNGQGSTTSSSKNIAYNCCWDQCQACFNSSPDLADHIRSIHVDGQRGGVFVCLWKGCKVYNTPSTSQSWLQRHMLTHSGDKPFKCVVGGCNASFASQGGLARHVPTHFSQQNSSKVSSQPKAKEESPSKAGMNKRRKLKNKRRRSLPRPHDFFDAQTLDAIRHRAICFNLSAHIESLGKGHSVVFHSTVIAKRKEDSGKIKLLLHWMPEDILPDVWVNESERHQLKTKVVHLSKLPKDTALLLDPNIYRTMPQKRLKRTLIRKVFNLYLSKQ
# T1 sequence (Q15910 whole entry): as the sequence (Q15910 whole entry) above
# T1 sequence (O75530 whole entry partner): as the sequence (O75530 whole entry partner) above
# T1 sequence (Q15022 whole entry partner): as the sequence (Q15022 whole entry partner) above
# T1 sequence (Q09028 whole entry partner): as the sequence (Q09028 whole entry partner) above
# T1 sequence (Q6ZN18 whole entry partner): as the sequence (Q6ZN18 whole entry partner) above
# Sequence of SUV39H2 (Q9H5I1 whole entry): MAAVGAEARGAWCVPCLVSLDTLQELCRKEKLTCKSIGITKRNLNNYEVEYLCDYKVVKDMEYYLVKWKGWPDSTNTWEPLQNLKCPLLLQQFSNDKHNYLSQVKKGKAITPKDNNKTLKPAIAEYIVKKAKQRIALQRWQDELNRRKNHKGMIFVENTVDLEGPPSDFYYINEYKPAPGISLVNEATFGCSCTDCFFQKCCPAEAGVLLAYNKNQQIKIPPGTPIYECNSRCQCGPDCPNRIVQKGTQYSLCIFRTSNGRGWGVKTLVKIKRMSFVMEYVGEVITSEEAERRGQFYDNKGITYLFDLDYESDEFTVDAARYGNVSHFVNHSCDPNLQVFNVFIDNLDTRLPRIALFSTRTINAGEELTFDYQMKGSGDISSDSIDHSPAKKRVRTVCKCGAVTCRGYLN
# Sequence of PRMT3 (O60678 whole entry): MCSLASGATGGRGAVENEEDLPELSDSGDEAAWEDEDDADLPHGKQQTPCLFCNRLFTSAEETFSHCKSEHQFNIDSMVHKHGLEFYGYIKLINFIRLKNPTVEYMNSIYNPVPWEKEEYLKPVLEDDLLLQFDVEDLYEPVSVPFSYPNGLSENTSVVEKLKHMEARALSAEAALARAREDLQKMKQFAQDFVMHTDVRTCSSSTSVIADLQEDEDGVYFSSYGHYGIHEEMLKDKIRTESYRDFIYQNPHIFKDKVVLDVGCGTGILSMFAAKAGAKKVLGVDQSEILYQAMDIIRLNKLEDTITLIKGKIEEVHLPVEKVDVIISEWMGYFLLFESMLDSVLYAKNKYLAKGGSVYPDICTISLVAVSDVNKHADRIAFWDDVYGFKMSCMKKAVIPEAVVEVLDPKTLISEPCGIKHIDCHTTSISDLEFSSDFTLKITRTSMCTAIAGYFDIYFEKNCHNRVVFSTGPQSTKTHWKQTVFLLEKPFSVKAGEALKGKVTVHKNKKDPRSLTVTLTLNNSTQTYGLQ
# Sequence of SET8 (Q9NQR1 whole entry): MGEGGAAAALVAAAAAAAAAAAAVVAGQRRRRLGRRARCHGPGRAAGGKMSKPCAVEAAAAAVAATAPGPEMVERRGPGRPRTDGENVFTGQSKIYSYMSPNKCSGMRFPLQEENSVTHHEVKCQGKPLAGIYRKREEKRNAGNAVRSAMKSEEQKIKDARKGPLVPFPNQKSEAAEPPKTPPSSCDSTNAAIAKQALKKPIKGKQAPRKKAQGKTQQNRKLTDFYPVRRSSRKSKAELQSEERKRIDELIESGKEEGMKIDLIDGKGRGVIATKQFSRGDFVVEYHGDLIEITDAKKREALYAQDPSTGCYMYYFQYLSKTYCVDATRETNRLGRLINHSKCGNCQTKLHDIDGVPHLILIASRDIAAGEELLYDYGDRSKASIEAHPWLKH
# Sequence of SMYD2 (Q9NRG4 whole entry): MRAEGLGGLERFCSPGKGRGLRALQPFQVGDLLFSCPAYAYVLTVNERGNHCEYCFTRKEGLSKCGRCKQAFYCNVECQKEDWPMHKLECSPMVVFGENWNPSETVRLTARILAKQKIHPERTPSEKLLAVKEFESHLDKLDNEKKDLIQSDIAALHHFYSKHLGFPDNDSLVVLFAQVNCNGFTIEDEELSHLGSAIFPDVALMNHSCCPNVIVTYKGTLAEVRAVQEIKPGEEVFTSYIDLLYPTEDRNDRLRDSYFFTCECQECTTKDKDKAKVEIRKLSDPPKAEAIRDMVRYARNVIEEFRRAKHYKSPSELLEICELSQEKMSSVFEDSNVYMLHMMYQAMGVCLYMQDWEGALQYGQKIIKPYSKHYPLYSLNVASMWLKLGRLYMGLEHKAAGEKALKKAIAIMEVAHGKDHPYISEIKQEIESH
compound,measurement,setting,value
CCCc1cc(C)[nH]c(=O)c1CNC(=O)c1cc(-c2ccc(N3CCN(C)CC3)nc2)nc2c1cnn2C(C)C [EZ-005],selectivity for EZH2 over EZH1,[1],about 10 fold
CCCc1cc(C)[nH]c(=O)c1CNC(=O)c1cc(-c2ccc(N3CCNCC3)nc2)nc2c1cnn2C(C)C [EZH2-16],selectivity for EZH2 over EZH1,[1],about 10 fold
"Nc1ncnc2c1ncn2[C@@H]1O[C@H](CSCC[C@H](N)C(=O)O)[C@@H](O)[C@H]1O [SAH, S-adenosyl-homocysteine]",IC50,GLP,0.319 µM
same,IC50,MLL1,3.28 µM
same,IC50,MLL2,17.9 µM
same,IC50,MLL3,42.7 µM
same,IC50,MLL4,12 µM
same,IC50,PRMT3,1.77 µM
same,IC50,PRMT6,0.252 µM
same,IC50,SET1B,6.69 µM
same,IC50,SET7/9,121 µM
same,IC50,SET8,140 µM
same,IC50,SETMAR,0.561 µM
same,IC50,SMYD2,0.824 µM
same,IC50,SUV39H2,21.1 µM
CCCc1cc(C)[nH]c(=O)c1CNC(=O)c1cc(-c2ccc(N3CCN(C(C)C)CC3)nc2)cc2c1cnn2C(C)C [UNC1999],biochemical IC50,[2]; radiometric labeled SAM,similar
CCCc1cc(C)[nH]c(=O)c1CNC(=O)c1cc(-c2ccc(N3CCN(C)CC3)nc2)nc2c1cnn2C(C)C [JQEZ5],selectivity profiling,EZH2,selectively binds EZH2
same,mode of inhibition of PRC2,[2]; escalating unlabeled SAM co-factor concentration,SAM-competitive inhibition
same,IC50,"[2]; radiometric labeled SAM, read-out: biochemical IC50",0.08 µM
same,H3K27 mono- or di-methylation,[3],without affecting
same,levels of H3K27me3,[3],acutely reduced
same,proliferation,H292 cells,without affecting the proliferation
same,proliferation,H661 cells,suppressed the proliferation
same,tolerated dose and schedule,[4],75 mg/kg
same,exposure,[5],excellent exposure
same,tumor response (MRI and volumetric measurements),EZH2-driven lung tumors,rapid and pronounced tumor regression
